Measurements reported in ChEMBL document CHEMBL1201862, “PubChem BioAssay data set” (2004).
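Tested at 5 concentrations; 48 h exposure; 96-well plates; endpoints linearly interpolated, else capped at highest concentration. GI50: concentration for 50% inhibition of growth.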 The source made the active and inactive calls. Cut-off read from the data, not from the text of the source: active = GI50 up to about 1.1 µM and inactive = higher.

Tests used:
Test in all cases: NCI-60 cell line screen, 48 h
HCT-15 = tested on: HCT-15
TK-10 = tested on: TK-10
U-251 = tested on: U-251
SF-268 = tested on: SF-268
OVCAR-3 = tested on: OVCAR-3
UACC-62 = tested on: UACC-62
PC-3 = tested on: PC-3
UACC-257 = tested on: UACC-257
RPMI-8226 = tested on: RPMI-8226
NCI/ADR-RES = tested on: NCI/ADR-RES
SK-MEL-28 = tested on: SK-MEL-28
SK-MEL-5 = tested on: SK-MEL-5
SNB-75 = tested on: SNB-75
SR = tested on: SR
MOLT-4 = tested on: MOLT-4
Malme-3M = tested on: Malme-3M
HT-29 = tested on: HT-29
NCI-H460 = tested on: NCI-H460
IGROV-1 = tested on: IGROV-1
EKVX = tested on: EKVX
COLO 205 = tested on: COLO 205
A549 = tested on: A549
OVCAR-4 = tested on: OVCAR-4
SK-MEL-2 = tested on: SK-MEL-2
LOX IMVI = tested on: LOX IMVI
SF-539 = tested on: SF-539
MCF7 = tested on: MCF7
BT-549 = tested on: BT-549
HL-60 = tested on: HL-60
SN12C = tested on: SN12C
KM12 = tested on: KM12
MDA-N = tested on: MDA-N
OVCAR-8 = tested on: OVCAR-8
RXF 393 = tested on: RXF 393
786-0 = tested on: 786-0
NCI-H522 = tested on: NCI-H522
ACHN = tested on: ACHN
SNB-19 = tested on: SNB-19
MDA-MB-231 = tested on: MDA-MB-231
NCI-H23 = tested on: NCI-H23
MDA-MB-435 = tested on: MDA-MB-435
SK-OV-3 = tested on: SK-OV-3
HCC 2998 = tested on: HCC 2998
SW-620 = tested on: SW-620
NCI-H226 = tested on: NCI-H226
CCRF-CEM = tested on: CCRF-CEM
T47D = tested on: T47D
UO-31 = tested on: UO-31
OVCAR-5 = tested on: OVCAR-5
K562 = tested on: K562
HCT-116 = tested on: HCT-116
DU-145 = tested on: DU-145
HOP-92 = tested on: HOP-92
CAKI-1 = tested on: CAKI-1
Hs-578T = tested on: Hs-578T
SF-295 = tested on: SF-295
M14 = tested on: M14
HOP-62 = tested on: HOP-62

COc1ccc2nc(-c3cccc(N(C)C)c3)cc(O)c2c1
GI50 (HCT-15): 0.317 µM
GI50 (TK-10): 4.74 µM (inactive)
GI50 (U-251): 0.247 µM (active)
GI50 (SF-268): 0.378 µM (active)
GI50 (OVCAR-3): 0.169 µM (active)
GI50 (UACC-62): 0.252 µM (active)
GI50 (PC-3): 0.362 µM (active)
GI50 (UACC-257): 0.485 µM (active)
GI50 (RPMI-8226): 0.318 µM (active)
GI50 (NCI/ADR-RES): 0.185 µM (active)
GI50 (SK-MEL-28): 0.419 µM (active)
GI50 (SK-MEL-5): 0.211 µM (active)
GI50 (SNB-75): 0.299 µM (active)
GI50 (SR): 0.142 µM (active)
GI50 (MOLT-4): 0.344 µM (active)
GI50 (Malme-3M): 0.177 µM (active)
GI50 (HT-29): 0.198 µM (active)
GI50 (NCI-H460): 0.348 µM (active)
GI50 (IGROV-1): 0.553 µM (active)
GI50 (EKVX): 1.55 µM (inactive)
GI50 (COLO 205): 0.198 µM (active)
GI50 (A549): 0.147 µM (active)
GI50 (OVCAR-4): 5.64 µM (inactive)
GI50 (SK-MEL-2): 0.314 µM (active)
GI50 (LOX IMVI): 0.334 µM (active)
GI50 (SF-539): 0.151 µM (active)
GI50 (MCF7): 0.413 µM (active)
GI50 (BT-549): 1.15 µM (inactive)
GI50 (HL-60): 0.187 µM (active)
GI50 (SN12C): 0.353 µM (active)
GI50 (KM12): 0.337 µM (active)
GI50 (MDA-N): 0.0608 µM (active)
GI50 (OVCAR-8): 0.186 µM (active)
GI50 (RXF 393): 0.173 µM (active)
GI50 (786-0): 0.408 µM (active)
GI50 (NCI-H522): 0.204 µM (active)
GI50 (ACHN): 0.618 µM (active)
GI50 (SNB-19): 0.451 µM (active)
GI50 (MDA-MB-231): 0.594 µM (active)
GI50 (NCI-H23): 0.111 µM (active)
GI50 (MDA-MB-435): 0.0726 µM (active)
GI50 (SK-OV-3): 0.327 µM (active)
GI50 (HCC 2998): 0.608 µM (active)
GI50 (SW-620): 0.264 µM (active)
GI50 (NCI-H226): 0.266 µM (active)
GI50 (CCRF-CEM): 0.255 µM (active)
GI50 (T47D): > 10 µM (inactive)
GI50 (UO-31): 0.782 µM (active)
GI50 (OVCAR-5): 0.541 µM (active)
GI50 (K562): 0.242 µM (active)
GI50 (HCT-116): 0.101 µM (active)
GI50 (DU-145): 0.384 µM (active)
GI50 (HOP-92): 0.469 µM (active)
GI50 (CAKI-1): 0.327 µM (active)
GI50 (Hs-578T): 0.188 µM (active)
GI50 (SF-295): 0.246 µM (active)

COc1ccc(C[C@H]2COC(=O)[C@@H]2Cc2cc(OC)c(OC)c(OC)c2)cc1OC
GI50 (HCT-15): > 100 µM
GI50 (TK-10): > 100 µM (inactive)
GI50 (U-251): > 100 µM (inactive)
GI50 (SF-268): > 100 µM (inactive)
GI50 (OVCAR-3): > 89.1 µM (inactive)
GI50 (UACC-62): 72.1 µM (inactive)
GI50 (PC-3): 42 µM (inactive)
GI50 (UACC-257): > 75 µM (inactive)
GI50 (RPMI-8226): 17.1 µM (inactive)
GI50 (NCI/ADR-RES): 41.1 µM (inactive)
GI50 (SK-MEL-28): 98.2 µM (inactive)
GI50 (SK-MEL-5): 26.2 µM (inactive)
GI50 (SNB-75): > 67.8 µM (inactive)
GI50 (SR): 5.9 µM (inactive)
GI50 (MOLT-4): 32.4 µM (inactive)
GI50 (Malme-3M): > 100 µM (inactive)
GI50 (HT-29): > 100 µM (inactive)
GI50 (NCI-H460): > 100 µM (inactive)
GI50 (IGROV-1): > 94.6 µM (inactive)
GI50 (EKVX): > 65.8 µM (inactive)
GI50 (COLO 205): > 100 µM (inactive)
GI50 (A549): > 100 µM (inactive)
GI50 (OVCAR-4): > 61.7 µM (inactive)
GI50 (SK-MEL-2): > 88.3 µM (inactive)
GI50 (LOX IMVI): > 74.1 µM (inactive)
GI50 (SF-539): > 100 µM (inactive)
GI50 (MCF7): > 64 µM (inactive)
GI50 (BT-549): 32 µM (inactive)
GI50 (SN12C): > 100 µM (inactive)
GI50 (KM12): > 70.3 µM (inactive)
GI50 (MDA-N): 78.7 µM (inactive)
GI50 (OVCAR-8): 50.1 µM (inactive)
GI50 (RXF 393): > 54.5 µM (inactive)
GI50 (786-0): > 100 µM (inactive)
GI50 (NCI-H522): > 68.7 µM (inactive)
GI50 (ACHN): > 100 µM (inactive)
GI50 (SNB-19): > 100 µM (inactive)
GI50 (MDA-MB-231): > 87.3 µM (inactive)
GI50 (NCI-H23): 99.3 µM (inactive)
GI50 (M14): 90.4 µM (inactive)
GI50 (MDA-MB-435): > 81.1 µM (inactive)
GI50 (SK-OV-3): > 100 µM (inactive)
GI50 (HCC 2998): > 81.7 µM (inactive)
GI50 (SW-620): > 100 µM (inactive)
GI50 (NCI-H226): > 34.4 µM (inactive)
GI50 (CCRF-CEM): 48.2 µM (inactive)
GI50 (T47D): 17.9 µM (inactive)
GI50 (UO-31): 43.6 µM (inactive)
GI50 (OVCAR-5): > 100 µM (inactive)
GI50 (K562): 77.8 µM (inactive)
GI50 (HCT-116): > 87.9 µM (inactive)
GI50 (DU-145): > 100 µM (inactive)
GI50 (HOP-92): 16 µM (inactive)
GI50 (CAKI-1): > 100 µM (inactive)
GI50 (Hs-578T): 38 µM (inactive)
GI50 (HOP-62): > 100 µM (inactive)
GI50 (SF-295): > 100 µM (inactive)
